The text below walks through data of paper PMC3254644, “DNA Display Selection of Peptide Ligands for a Full-Length Human G Protein-Coupled Receptor on CHO-K1 Cells” (PLoS ONE, 2012).

Residues, ends and D or L forms follow the SMILES beside them.

In assay [1] the target is T1, human angiotensin II type 1 receptor (hAT1R) (Homo sapiens, UniProt P30556).
T1 construct: we applied the DNA display system to in vitro selection of peptide ligands for a full-length GPCR expressed on whole cells; polyhistidine (C); expressed in transfected cells
T1 sequence (P30556 1-359): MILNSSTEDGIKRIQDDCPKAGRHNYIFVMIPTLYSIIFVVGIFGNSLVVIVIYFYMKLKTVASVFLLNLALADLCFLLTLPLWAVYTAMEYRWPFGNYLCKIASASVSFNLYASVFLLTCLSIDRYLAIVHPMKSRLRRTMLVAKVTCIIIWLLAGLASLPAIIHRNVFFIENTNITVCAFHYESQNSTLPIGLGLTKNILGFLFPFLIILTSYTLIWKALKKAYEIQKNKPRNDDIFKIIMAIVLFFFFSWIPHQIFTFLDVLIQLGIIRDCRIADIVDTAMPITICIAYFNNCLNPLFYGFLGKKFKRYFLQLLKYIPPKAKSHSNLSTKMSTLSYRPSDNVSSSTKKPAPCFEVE
Nature of the assay: Competitive binding assay at various concentrations of synthetic peptides (IC50). As to conditions: streptavidin-fused Ang II on hAT1R/CHO-K1 cells competed by 0–200 nM synthetic peptide; 10 min room temperature; quantitative Western blot (Fig. S1). The protocol:
Streptavidin-fused peptides for selected clones were prepared separately by using the PURE system classic II kit with 20 nM DNA for 1 h at 37°C. The streptavidin-fused peptides were incubated with the hAT1R-expressing cells for 10 min at room temperature in the presence 0–200 nM synthetic peptides (see next section) as competitors, and washed as described in the previous section. Then the binding proteins were recovered using 0.5 ml of lysis buffer (1% protease inhibitor cocktail and 4 M urea) on ice for 30 min. The cell lysates were analyzed by 15% SDS-PAGE and Western blot analysis using anti-T7·tag antibody (Novagen) followed by HRP-conjugated secondary antibody (Chemicon). The streptavidin-fused peptides with T7·tag were quantitatively detected by an ECL chemiluminescence kit and Hyperfilm ECL (GE Healthcare).
Supplementary file pone.0030084.s001.pdf: Figure S1 Competition curves for selected peptides. […] For details, see MATERIALS AND METHODS. (PDF) Click here for additional data file.
A general note: In western blotting, separated proteins are transferred to a membrane and probed.

The next assay concerns rat AT1R. Details: method as in PMID 12969745. As to conditions: cited from earlier work.
Assay [2] addresses human angiotensin II (Ang II) type-1 receptor (hAT1R) with C-terminal c-myc tag, on CHO-K1 cells (human) (UniProt P30556). Nature of the assay: radioligand binding; [125I]Sar1,Ile8-Ang II, 0.05 nM to 20 nM, on hAT1R/CHO-K1 cells in 48-well plates; Ham's F12 with 1% BSA; 30 min at room temperature; Scatchard analysis; data not shown.

The term IC50 denotes the concentration needed to halve the response being measured. Higher therefore signals weaker potency. A word on the Kd: it is the concentration at which binding is half-saturated. Low readings indicate higher affinity, high ones lower affinity.

Regarding `CC[C@H](C)[C@H](NC(=O)[C@H](Cc1ccc(O)cc1)NC(=O)[C@H](Cc1ccccc1)NC(=O)[C@H](CCCNC(=N)N)NC(=O)[C@@H](N)CCC(N)=O)C(=O)N[C@@H](Cc1c[nH]cn1)C(=O)N1CCC[C@H]1C(=O)N[C@@H](CC(C)C)C(=O)O` [LII3-4] (H-QRFYIHPL-OH), in assay [1], the IC50 is 0.048 µM.
Consider `CC[C@H](C)[C@H](NC(=O)[C@H](CCCNC(=N)N)NC(=O)[C@@H](N)CC(N)=O)C(=O)N[C@@H](Cc1ccc(O)cc1)C(=O)N[C@H](C(=O)N[C@@H](Cc1c[nH]cn1)C(=O)N1CCC[C@H]1C(=O)N[C@@H](Cc1ccccc1)C(=O)O)[C@@H](C)CC` [LI5-1] (H-NRIYIHPF-OH), for which the IC50 in assay [1] is 0.016 µM.
`CC(C)C[C@H](NC(=O)[C@H](CCCNC(=N)N)NC(=O)[C@@H](N)Cc1c[nH]c2ccccc12)C(=O)N[C@@H](Cc1ccc(O)cc1)C(=O)N[C@@H](CC(C)C)C(=O)N[C@@H](Cc1c[nH]cn1)C(=O)N1CCC[C@H]1C(=O)N[C@@H](Cc1ccccc1)C(=O)O` [LI5-2] (H-WRLYLHPF-OH) came in with an IC50 in assay [1] of 0.075 µM.
With “[Lys^2]Ang II (DKVYIHPF; Angiotensin-2; UniProt P01019 25-32, looked up, variant R2K) [Ang II analogue with Lys at position 2, from the literature]”, in the assay on rat AT1R, the “affinity for rat AT1R relative to wild-type Ang II” value is listed as “lower than that of wild-type Ang II”.
Take `CC[C@H](C)[C@H](NC(=O)[C@@H]1CCCN1C(=O)[C@H](Cc1c[nH]cn1)NC(=O)[C@@H](NC(=O)[C@H](Cc1ccc(O)cc1)NC(=O)[C@H](CC(C)C)NC(=O)[C@H](CCCCN)NC(=O)[C@@H](N)CCCNC(=N)N)[C@@H](C)CC)C(=O)O` [LII3-5] (H-RKLYIHPI-OH): in assay [1], the IC50 amounted to 0.0076 µM.
Regarding `CC[C@H](C)[C@H](NC(=O)[C@@H]1CCCN1C(=O)[C@H](Cc1c[nH]cn1)NC(=O)[C@@H](NC(=O)[C@H](Cc1ccc(O)cc1)NC(=O)[C@H](CC(C)C)NC(=O)[C@H](CCCNC(=N)N)NC(=O)CN)[C@@H](C)CC)C(=O)O` [LII3-2] (H-GRLYIHPI-OH), the IC50 in assay [1] stood at 0.0086 µM.
With [125I]Sar1,Ile8-Ang II (peptide), the Kd in assay [2] was found to be 0.0082 µM.
